Reference: paper PMC12069901 (Acta Pharmaceutica Sinica. B, 2025)

Legend:
STAT3 [1] = test: STAT3 dimerization assay and immunoprecipitation; assay type: cell-based, rat; details: PDGF-BB-induced VSMCs; CAB 3–5 μmol/L, AG490 20 μmol/L, stattic 1 μmol/L
VSMCs [2] = test: MTT cytotoxicity assay in VSMCs; assay type: cell-based, rat; details: 5 μmol/L, 26 h
VSMCs [3] = test: Annexin V/PI apoptosis detection assay; assay type: cell-based, rat; details: 5 μmol/L, 26 h, compared with control
PDGFR-β = test: Western blot, PDGFR-β phosphorylation in PDGF-BB-induced VSMCs; assay type: cell-based, rat; details: 1–5 μmol/L, PDGF-BB 15 min
AKT = test: Western blot, AKT phosphorylation in PDGF-BB-induced VSMCs; assay type: cell-based, rat; details: 1–5 μmol/L, PDGF-BB 15 min
ERK1/2 = test: Western blot, ERK1/2 phosphorylation in PDGF-BB-induced VSMCs; assay type: cell-based, rat; details: 1–5 μmol/L, PDGF-BB 15 min
p38 = test: Western blot, p38 phosphorylation in PDGF-BB-induced VSMCs; assay type: cell-based, rat; details: 1–5 μmol/L, PDGF-BB 15 min
STAT3 [4] = test: Western blot, STAT3 phosphorylation in PDGF-BB-induced VSMCs; assay type: cell-based, rat; details: for STAT3 phosphorylation: PDGF-BB 24 h, CAB 1–5 μmol/L, stattic 1 μmol/L
JAK2 = test: Western blot, JAK2 expression and phosphorylation in PDGF-BB-induced VSMCs; assay type: cell-based, rat; details: for PDGF-BB-induced JAK2 expression: 24 h; for PDGF-BB-induced JAK2 expression / JAK2 phosphorylation: CAB 1–5 μmol/L, stattic 1 μmol/L; for JAK2 phosphorylation: PDGF-BB 24 h
SRC = test: Western blot, SRC phosphorylation in PDGF-BB-induced VSMCs; assay type: cell-based, rat; details: 5 μmol/L, PDGF-BB 15 min
His-STAT3 = test: His-tag pull-down assay with CAB-conjugated Sepharose 6B; assay type: binding, Mus musculus
STAT3 [5] = test: STAT3 nuclear translocation; assay type: cell-based, rat; details: PDGF-BB 15 min
STAT3 [6] = test: STAT3 dual-luciferase reporter assay; assay type: cell-based, rat; details: PDGF-BB 6 h
CIAPIN1 [7] = test: Western blot, CIAPIN1 expression in PDGF-BB-induced VSMCs; assay type: cell-based, rat; details: 24 h; CAB 1–5 μmol/L, stattic 1 μmol/L
KLF4 = test: Western blot, KLF4 expression in PDGF-BB-induced VSMCs; assay type: cell-based, rat; details: 24 h; CAB 1–5 μmol/L, stattic 1 μmol/L
SPP1 = test: Western blot, SPP1 expression in PDGF-BB-induced VSMCs; assay type: cell-based, rat; details: 24 h; CAB 1–5 μmol/L, stattic 1 μmol/L
[8] = system: Ciapin1 promoter (STAT3-RE1); test: ChIP-PCR assay, STAT3 binding to Ciapin1 promoter; assay type: cell-based, rat; details: CAB 2 h, then PDGF-BB 6 h
rat Ciapin1 promoter = test: Ciapin1 promoter luciferase assay; assay type: cell-based; details: PDGF-BB 6 h
CDKN1B = test: Western blot, CDKN1B expression in PDGF-BB-induced VSMCs; assay type: cell-based, rat; details: 24 h, CAB 1–5 μmol/L, stattic 1 μmol/L
PDGF-BB-induced VSMCs [9] = test: Cell cycle progression analysis; assay type: cell-based, rat; details: CAB-treated versus PDGF-BB-induced VSMCs, 24 h
cyclin E1 = test: Western blot, cyclin E1 expression; assay type: cell-based, rat; details: 1–5 μmol/L, 24 h
CDK2 = test: Western blot, CDK2 expression; assay type: cell-based, rat; details: 1–5 μmol/L, 24 h
cyclin D1 = test: Western blot, cyclin D1 expression; assay type: cell-based, rat; details: 1–5 μmol/L, 24 h
CDK4 = test: Western blot, CDK4 expression; assay type: cell-based, rat; details: 1–5 μmol/L, 24 h
phospho-pRb (p-pRb) = test: Western blot, phospho-pRb; assay type: cell-based, rat; details: 1–5 μmol/L, 24 h
PCNA = test: Western blot, PCNA expression; assay type: cell-based, rat; details: 1–5 μmol/L, 24 h
MMP9 [10] = test: Western blot, MMP9 expression; assay type: cell-based, rat; details: 1–5 μmol/L, 24 h
MMP9 [11] = test: Gelatin zymography, MMP9 activity; assay type: cell-based, rat; details: 1–5 μmol/L, PDGF-BB 24 h
CIAPIN1 [12] = test: CIAPIN1 nuclear accumulation; assay type: cell-based, rat; details: PDGF-BB-induced VSMCs, 24 h
rat carotid arteries = test: Balloon injury-induced neointima formation in rat carotid artery; assay type: in vivo, Sprague–Dawley rats; details: 20 mg/kg orally daily, 14 days
[13] = assay type: in vivo, Sprague–Dawley rats
[14] = molecular target: STAT3 protein (amino acids 127–688) (Homo sapiens, UniProt P40763); test: Surface plasmon resonance; assay type: binding; details: immobilized STAT3 (127–688 aa), 25 °C
PDGF-BB-induced VSMCs [15] = test: MTT assay, PDGF-BB-induced VSMC proliferation; assay type: cell-based, rat; details: 5 μmol/L for 2 h, then PDGF-BB 25 ng/mL for 24 h
[16] = rat serum, after 2 weeks of CAB administration

Chain of STAT3 protein (amino acids 127–688) (P40763 127-688): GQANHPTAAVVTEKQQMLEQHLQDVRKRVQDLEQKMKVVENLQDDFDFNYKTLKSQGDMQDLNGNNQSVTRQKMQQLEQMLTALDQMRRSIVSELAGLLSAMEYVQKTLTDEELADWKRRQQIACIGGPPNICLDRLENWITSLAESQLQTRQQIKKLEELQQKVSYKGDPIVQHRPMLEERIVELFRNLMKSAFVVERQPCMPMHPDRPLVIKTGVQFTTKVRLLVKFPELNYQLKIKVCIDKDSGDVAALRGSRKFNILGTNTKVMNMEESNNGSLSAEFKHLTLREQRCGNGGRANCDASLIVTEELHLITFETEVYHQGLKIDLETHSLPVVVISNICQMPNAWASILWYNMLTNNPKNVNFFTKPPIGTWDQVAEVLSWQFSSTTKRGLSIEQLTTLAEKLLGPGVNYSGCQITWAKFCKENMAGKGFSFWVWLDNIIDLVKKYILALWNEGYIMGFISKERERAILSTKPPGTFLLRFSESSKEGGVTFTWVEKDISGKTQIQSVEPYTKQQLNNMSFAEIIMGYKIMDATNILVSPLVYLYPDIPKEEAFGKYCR

N#C/C(=C/c1ccc(O)c(O)c1)C(=O)NCc1ccccc1 [AG490]
STAT3 dimerization (STAT3 [1]): inhibitory effect

Nc1ccc(C(=O)Oc2ccc3[nH]c4ccccc4c3c2)cc1 [CAB, 9H-Carbazol-3-yl 4-aminobenzoate]
cytotoxic effects in VSMCs (VSMCs [2]): did not induce cytotoxic effects | cell apoptosis induction (VSMCs [3]): no signs of cell apoptosis induction | PDGF-BB-stimulated PDGFR-β phosphorylation (PDGFR-β): did not affect | PDGF-BB-stimulated AKT phosphorylation (AKT): did not affect | PDGF-BB-stimulated ERK1/2 phosphorylation (ERK1/2): did not affect | PDGF-BB-stimulated p38 phosphorylation (p38): did not affect | PDGF-BB-induced STAT3 tyrosine (Tyr) 705 phosphorylation (STAT3 [4]; 1–5 μmol/L, PDGF-BB 15 min): significantly inhibited | STAT3 serine (Ser) 727 phosphorylation (STAT3 [4]; 1–5 μmol/L, PDGF-BB 15 min): without affecting | STAT3 phosphorylation (STAT3 [4]): attenuated | PDGF-BB-induced JAK2 phosphorylation (JAK2; 5 μmol/L, PDGF-BB 15 min): did not inhibit | PDGF-BB-induced JAK2 expression (JAK2): significantly inhibited | JAK2 phosphorylation (JAK2): attenuated | PDGF-BB-induced SRC phosphorylation (SRC): did not inhibit | binding to STAT3 with mutated SH2 residues (His-STAT3; Ile59, Arg609, and Glu612 mutated, compared to full-length): did not bind to STAT3 strongly | pull-down of full-length STAT3 by CAB-conjugated beads (His-STAT3; full-length His-STAT3): successfully pulled down | pull-down of STAT3 fragments lacking SH2 by CAB-conjugated beads (His-STAT3; ΔSH2): did not pull down | STAT3 dimerization (STAT3 [1]): inhibited | PDGF-BB-increased STAT3 phosphorylation and nuclear translocation (STAT3 [5]): blocked | PDGF-BB-induced STAT3 DNA binding activity (luciferase reporter) (STAT3 [6]): inhibited | PDGF-BB-induced CIAPIN1 expression (CIAPIN1 [7]): significantly inhibited | PDGF-BB-induced expression of KLF4 (KLF4): decreased | PDGF-BB-induced expression of SPP1 (SPP1): decreased | binding of STAT3 to the Ciapin1 promoter region (protein/DNA binding) [8]: inhibited | PDGF-BB-induced CIAPIN1 luciferase expression (rat Ciapin1 promoter): inhibited | CDKN1B expression (CDKN1B): dose-dependently restored | G0/G1 phase proportion (PDGF-BB-induced VSMCs [9]): increase | PDGF-BB-induced cyclin E1 expression (cyclin E1): significantly inhibited | PDGF-BB-induced CDK2 expression (CDK2): significantly inhibited | PDGF-BB-induced cyclin D1 expression (cyclin D1): significantly inhibited | PDGF-BB-induced CDK4 expression (CDK4): significantly inhibited | PDGF-BB-induced phospho-pRb (p-pRb) (phospho-pRb (p-pRb)): significantly inhibited | PDGF-BB-induced PCNA expression (PCNA): significantly inhibited | PDGF-BB-induced MMP9 expression (MMP9 [10]): significantly inhibited | MMP9 proteolytic activity (MMP9 [11]): significantly inhibited | CIAPIN1 nuclear accumulation (CIAPIN1 [12]): significantly reduced | CIAPIN1 expression in the neointima region (rat carotid arteries): remarkably decreased | arterial intimal areas (rat carotid arteries; BI + CAB vs BI): lower | circumference of the external elastic lamina (EEL) (rat carotid arteries; BI + CAB vs BI): no differences | media area (rat carotid arteries; BI + CAB vs BI): no differences | balloon injury-induced neointima formation (rat carotid arteries; vs BI group): significantly attenuated | expression of PCNA in carotid arteries (rat carotid arteries; vs BI group): significantly decreased | glutamic pyruvic transaminase (GPT/ALT, soluble) level [13, 16]: no alterations | glutamic-oxaloacetic transaminase 1 (GOT1/AST, soluble) level [13, 16]: no alterations | histological morphology of liver, heart, lung, and kidney ([13]; rat, 20 mg/kg orally daily): no significant changes | side effects, such as diarrhea and weight loss ([13]; rat, 20 mg/kg orally daily): did not show any side effects | cell death induction (TUNEL staining) in carotid arteries ([13]; rat, 14 days post-injury, compared with control group): no signs of cell death induction

O=[N+]([O-])c1ccc2c(c1)S(=O)(=O)C=C2 [Stattic, reference compound]
STAT3 phosphorylation (STAT3 [4]): significantly inhibited | PDGF-BB-induced JAK2 expression (JAK2): significantly inhibited | JAK2 phosphorylation (JAK2): significantly inhibited | Ka, association rate constant [14]: 1002 mol⁻¹ L⁻¹ s⁻¹ | Kd, dissociation rate constant [14]: 0.009083 s⁻¹ | Kd ([14]; read-out: KD, equilibrium constant): 9.07 µM | STAT3 dimerization (STAT3 [1]): inhibitory effect | PDGF-BB-induced CIAPIN1 expression (CIAPIN1 [7]): significantly inhibited | PDGF-BB-induced expression of KLF4 (KLF4): inhibited | PDGF-BB-induced expression of SPP1 (SPP1): inhibited | CDKN1B expression (CDKN1B): increased | CIAPIN1 nuclear accumulation (CIAPIN1 [12]): significantly reduced

O=C(Oc1ccc2[nH]c3ccccc3c2c1)c1ccc(O)cc1 [compound 2, 9H-Carbazol-3-yl 4-hydroxybenzoate]
PDGF-BB-stimulated VSMC proliferation (PDGF-BB-induced VSMCs [15]): significantly inhibited

N=C(N)Nc1ccc(C(=O)Oc2ccc3[nH]c4ccccc4c3c2)cc1 [compound 3, 9H-Carbazol-3-yl 4-guanidinobenzoate]
PDGF-BB-stimulated VSMC proliferation (PDGF-BB-induced VSMCs [15]): significantly inhibited

CC(=O)Nc1ccc(C(=O)Oc2ccc3[nH]c4ccccc4c3c2)cc1 [compound 4, 9H-Carbazol-3-yl 4-acetamidobenzoate]
PDGF-BB-stimulated VSMC proliferation (PDGF-BB-induced VSMCs [15]): significantly inhibited
